Test results reported in patent US20120328530A1, “TOLUIDINE BLUE DERIVATIVES AS PHOTOSENSITISING COMPOUNDS” (PHARMALUCIA LIMITED, priority 2010, published 2012).

What was measured:
Format in all cases: cell-based
[1] = test system: Enterococcus faecalis (NCIMB 13280); test: Photobactericidal efficacy, minimum bactericidal concentration; conditions: 10^6 cfu/ml, 1 hour at 37° C. with photosensitiser, illuminated twenty minutes, LEDs 660 nm, 6.2 J cm^-2; table does not say light or dark
Protocol: (§1) The photobactericidal efficacies of the compounds of examples 2a to 2d in addition to that of the known photosensitiser methylene blue were measured against both Gram positive Staphylococcus aureus (NCTC 6571), Enterococcus faecalis (NCIMB 13280) and Propionibacterium acnes (NCTC 737) and Gram negative Escherichia coli (NCTC 10418), Proteus mirabilis (NCIMB 5887) and a clinical strain of Pseudomonas aeruginosa bacteria. Propionibacterium acnes was grown in reinforced clostridial medium. All other strains were grown in Mueller-Hinton Broth and then diluted to a concentration of 10^6 colony-forming units/ml. Aliquots of the strains were then incubated for 1 hour at 37° C. in microtitre trays with various concentrations of photosensitiser in doubling dilutions from 100 μM, with zero photosensitiser concentrations in each case for control purposes. The trays were then either illuminated for twenty minutes using an array of light-emitting diodes (660 nm) giving a light dose of 6.2 J cm^−2 or alternatively foil-covered to provide dark controls. From each well showing an inhibition of growth of the micro-organism, 1 μl was sub-cultured on nutrient agar, using the Miles-Misra method, and incubated for 18 hours at 37° C. The minimum bactericidal concentrations were then determined as the lowest concentration for each photosensitiser giving no bacterial growth.

[2] = test system: Escherichia coli (NCTC 10418); test: as above; conditions: NCTC10418, 10^6 cfu/ml, 1 hour at 37° C. with photosensitiser, illuminated twenty minutes, LEDs 660 nm, 6.2 J cm^-2, table does not say light or dark, read-out: minimum concentration needed to achieve the antibacterial activity (minimum bactericidal concentration), E. coli
Protocol: as §1

[3] = test system: Propionibacterium acnes (NCTC 737); test: as above; conditions: Cutibacterium acnes, NCTC737; reinforced clostridial medium, 1 hour at 37° C. with photosensitiser, illuminated twenty minutes, LEDs 660 nm, 6.2 J cm^-2; table does not say light or dark; read-out: minimum concentration needed to achieve the antibacterial activity (minimum bactericidal concentration), Prop. acnes
Protocol: as §1

[4] = test system: Proteus mirabilis (NCIMB 5887); test: as above; conditions: 10^6 cfu/ml, 1 hour at 37° C. with photosensitiser, illuminated twenty minutes, LEDs 660 nm, 6.2 J cm^-2; table does not say light or dark
Protocol: as §1

[5] = test system: Staphylococcus aureus (NCTC 6571); test: as above; conditions: NCTC6571, 10^6 cfu/ml, 1 hour at 37° C. with photosensitiser, illuminated twenty minutes, LEDs 660 nm, 6.2 J cm^-2, table does not say light or dark, read-out: minimum concentration needed to achieve the antibacterial activity (minimum bactericidal concentration), S. aureus
Protocol: as §1

[6] = test system: clinical strain of Pseudomonas aeruginosa; test: as above; conditions: 10^6 cfu/ml, 1 hour at 37° C. with photosensitiser, illuminated twenty minutes, LEDs 660 nm, 6.2 J cm^-2, table does not say light or dark
Protocol: as §1

[7] = test system: Candida albicans (NCPF 8179); test: Antifungal screening, minimum concentration; conditions: Sabouraud broth and agar, carried out similarly: illuminated twenty minutes, LEDs 660 nm, 6.2 J cm^-2; table does not say light or dark
Protocol: as §1
Antifungal screening was carried out similarly against the yeast Candida albicans (NCPF 8179), using Sabouraud broth and agar.

CCc1cc2nc3ccc(N(C)C)cc3[s+]c2cc1N [Compound 2a]
minimum concentration needed to achieve the antibacterial activity (minimum bactericidal concentration), Enterococcus facecalis [1]: 1.35 µM | MBC [2]: 1.47 µM | MBC [3]: 0.78 µM | minimum concentration needed to achieve the antibacterial activity (minimum bactericidal concentration), Proteus mirabilis [4]: 5.50 µM | MBC [5]: 3.13 µM | minimum concentration needed to achieve the antibacterial activity (minimum bactericidal concentration), Pseudomonas Aeruginosa [6]: 3.13 µM | minimum concentration needed to achieve the antifungal activity, Candida albicans [7]: 3.13 µmol/L

CCCc1cc2nc3ccc(N(C)C)cc3[s+]c2cc1N [Compound 2b, 3-Amino-7-(dimethylamino)-2-n-propylphenothiazinium hydrogensulphate]
minimum concentration needed to achieve the antibacterial activity (minimum bactericidal concentration), Enterococcus facecalis [1]: 0.33 µM | MBC [2]: 1.32 µM | MBC [3]: 0.78 µM | minimum concentration needed to achieve the antibacterial activity (minimum bactericidal concentration), Proteus mirabilis [4]: 5.32 µM | MBC [5]: 3.13 µM | minimum concentration needed to achieve the antibacterial activity (minimum bactericidal concentration), Pseudomonas Aeruginosa [6]: 0.78 µM | minimum concentration needed to achieve the antifungal activity, Candida albicans [7]: 0.78 µmol/L

CN(C)c1ccc2nc3cc(C(C)(C)C)c(N)cc3[s+]c2c1 [Compound 2c, 3-Amino-2-tert-butyl-7-(dimethylamino)phenothiazinium hydrogensulphate]
MBC [2]: 3.13 µM | MBC [3]: 0.78 µM | MBC [5]: 3.13 µM | minimum concentration needed to achieve the antibacterial activity (minimum bactericidal concentration), Pseudomonas Aeruginosa [6]: 0.39 µM | minimum concentration needed to achieve the antifungal activity, Candida albicans [7]: 3.13 µmol/L

CN(C)c1ccc2nc3cc(-c4ccccc4)c(N)cc3[s+]c2c1 [Compound 2d, 3-Amino-7-(dimethylamino)-2-phenylphenothiazinium hydrogensulphate]
MBC [2]: 3.13 µM | MBC [5]: 3.13 µM | minimum concentration needed to achieve the antifungal activity, Candida albicans [7]: 0.78 µmol/L

Cc1cc2c(cc1N)=[SH]c1cc(N(C)C)ccc1N=2 [toluidine blue, Toluidine blue]
minimum concentration needed to achieve the antibacterial activity (minimum bactericidal concentration), Enterococcus facecalis [1]: 7.36 µM | minimum concentration needed to achieve the antibacterial activity (minimum bactericidal concentration), Proteus mirabilis [4]: 14.71 µM | minimum concentration needed to achieve the antibacterial activity (minimum bactericidal concentration), Pseudomonas Aeruginosa [6]: 7.36 µM | minimum concentration needed to achieve the antifungal activity, Candida albicans [7]: 12.5 µmol/L
